Test results reported in patent publication US20180263993A1, “METHOD FOR PREVENTING AND/OR TREATING CHRONIC TRAUMATIC ENCEPHALOPATHY-IV” (Eustralis Pharmaceuticals Limited (trading as Pressura …, priority 2013, published 2018).

Test system: tau phosphorylation
Experiment: Tau phosphorylation after concussive injury in the rat (phosphorylated tau immunohistology)
Type: in vivo
Conditions: rat concussion model; 1 mg/kg intravenously at 30 min after induction of injury; assessed 3 days after the concussive event; compared with injured and non-injured animals
Excerpt: Note that concussive injury in the rat causes extensive tau phosphorylation (B) by 3 days after the concussive event compared to non-injured animals (A).
Having established that hyperphosphorylated tau accumulates perivascularly following concussive injury, we used an animal model of concussion to investigate whether concussion causes perivascular release of substance P. We developed a rodent model of concussion to replicate the concussive event (Donkin et al., 2004, 7th International Neurotrauma Symposium, pp 75-78, Medimond Publishers, Bologna, Italy) and subsequently determined whether substance P was released after such an event. There was a clear increase in brain perivascular substance P immunoreactivity after the concussive event (FIG. 2).
Having shown that mechanical injury causes release of substance P after concussive injury, we then investigated whether a compound of formula (I) reduces tau hyperphosphorlation after concussive injury. […] Note that concussive injury in the rat causes extensive tau phosphorylation (B) by 3 days after the concussive event compared to non-injured animals (A). […] Thus, administration of a compound of formula (I) prevents tau hyperphosphorylation and thus prevents the development of CTE.

Cc1ccccc1-c1cc(N2CCOCC2)ncc1N(C)C(=O)C(C)(C)c1cc(C(F)(F)F)cc(C(F)(F)F)c1 [compound of formula (I), 2-[3,5-bis(trifluoromethyl)phenyl]-N,2-dimethyl-N-[4-(2-methylphenyl)-6-morpholin-4-ylpyridin-3-yl]propanamide]
effect on tau phosphorylation after concussive injury: almost complete inhibition of tau phosphorylation
